Laboratory results from patent publication US11685717B2, “Polypeptide integrin antagonists” (The General Hospital Corporation, priority 2018, dated 2023).
Entries after “also recorded” stand apart in the source; their conditions may differ. Positions of bridges follow the written chain, without caps; N, C: chain ends. Non-standard residues stand in square brackets, D forms with d. Residues, ends and D or L forms follow the SMILES beside them. hArg = N=C(N)NCCCC[C@H](N)C(=O)O; Mpa = O=C(O)CCS

Tests used:
human platelets [1] = assay: Surface expression of CD62P and CD63 on human platelets (flow cytometry); type: cell-based; details: 1.5 μM; ADP 20 μM; FIG. 11F
Description: αVβ3-K562 cells or transiently transfected HEK293T (0.5×10^6 in 100 μL WB) were incubated in the absence or presence of unlabeled Hr10 or eptifibatide, each at 1.5 μM, for 20 min at RT. Alexa647-labeled AP5 Fab or unlabeled anti-LIBS-1 (each to 10 μg/mL) were added, and cells incubated for an additional 30 min before washing. Alexa647-labeled AP3 was used for normalization of integrin expression. APC-labeled goat anti-mouse Fc-specific antibody was added to anti-LIBS-1-bound cells for an additional 30 min at 4° C., cells washed and processed for flow cytometry. Binding of anti-CD62 and anti-CD63 mAbs to platelets was performed by incubating (20 min, RT) 100 μL of ligand-pretreated 3.2% sodium citrate whole blood with either Alexa488-labeled mAb (at 10 μg/mL) in the presence of 10 μg/mL Alexa647-labeled anti-CD42b. Cells were fixed in 2% paraformaldehyde and CD62 and CD63 expression was analyzed by flow cytometry in the CD42b positive population.

human platelets [2] = assay: Cremaster laser injury thrombosis in vWF RH/RH NSG mice infused with human platelets; type: in vivo; details: eptifibatide 5 μg/mouse, Hr10 60 μg/mouse (equimolar), infused 5 min before injury; FIG. 13A
Description: Human blood was collected in 0.129 M sodium citrate (10:1 vol/vol). Blood was obtained from healthy donors after informed consent. Platelet-rich plasma (PRP) was separated after centrifugation (200 g, 10 minutes) at room temperature (RT). The platelets were then isolated from PRP, and prostaglandin E1 (Sigma-Aldrich) added to a final concentration of 1 μM. Platelets were then pelleted by centrifugation (800 g, 10 minutes) at RT. The pellet was washed in calcium-free Tyrode's buffer (134 mM NaCl, 3 mM KCl, 0.3 mM NaH2PO4, 2 mM MgCl2, 5 mM HEPES, 5 mM glucose, 0.1% NaHCO3, and 1 mM EGTA, pH 6.5), and re-suspended in CATCH buffer (PBS and 1.5% bovine serum albumin, 1 mM adenosine, 2 mM theophylline, 0.38% sodium citrate, all from Sigma-Aldrich). Platelet counts were determined using a HemaVet counter (Drew Scientific). Intravital microscopy was performed as previously described (see e.g., Celi et al, J. Thromb. Haemost. 1, 60-68 (2003); and Neyman et al, Blood, 112, 1101-1108 (2008)). vWF^RH RHNSG male mice were studied after being anesthetized using sodium pentobarbital (80 mg/kg) injected intraperitoneally. Mice were maintained under anesthesia with the same anesthetic delivered via a catheterized jugular vein at 5 mg/mL throughout the experiment. […]

[3] = Tail bleeding in vWF RH/RH NSG mice infused with human platelets; details: mouse, in vivo
Description: Pentobarbital-anesthetized vWF^RH RHNSG mice were infused retroorbitally with 8×10^8 washed human platelets in a final volume of 200 μL (so that ˜40% of the circulating platelets were human). After 5 minutes PBS, 3 μM eptifibatide or Hr10 were administered IV. After another 5 minutes, mouse tail injury was produced by amputating an 8-mm terminal tail segment using a razor blade, which was then placed in a collection tube containing sterile water at 37° C. for 10 minutes. The hemoglobin level in the water was measured by a spectrophotometer, as described (see e.g., Greene et al, J. Thromb. Haemost. 8, 2820-2822 (2010)) with the following modifications. Briefly, the hemolyzed whole blood/water mixture was centrifuged at 21,000×g for 5 minutes. Aliquots (20 μL) of clarified, stroma-free supernatant were diluted 10-fold in a Corning 96-well micro-plate and light absorbance measured at 575 nm (Spectramax-190 plate reader, Molecular Devices, San Jose, Calif.). Blood loss during the 10-minute window was measured based on a previously obtained standard curve.

αIIbβ3 = target: T1, αIIbβ3 (Homo sapiens, UniProt P05106+P08514); assay: Binding of conformation-sensitive mAbs AP5 / LIBS-1 to human platelets; type: cell-based
T1 construct: expressed in transfected cells; host or cells: K562
T1 sequence (P08514 32-887 limits assumed): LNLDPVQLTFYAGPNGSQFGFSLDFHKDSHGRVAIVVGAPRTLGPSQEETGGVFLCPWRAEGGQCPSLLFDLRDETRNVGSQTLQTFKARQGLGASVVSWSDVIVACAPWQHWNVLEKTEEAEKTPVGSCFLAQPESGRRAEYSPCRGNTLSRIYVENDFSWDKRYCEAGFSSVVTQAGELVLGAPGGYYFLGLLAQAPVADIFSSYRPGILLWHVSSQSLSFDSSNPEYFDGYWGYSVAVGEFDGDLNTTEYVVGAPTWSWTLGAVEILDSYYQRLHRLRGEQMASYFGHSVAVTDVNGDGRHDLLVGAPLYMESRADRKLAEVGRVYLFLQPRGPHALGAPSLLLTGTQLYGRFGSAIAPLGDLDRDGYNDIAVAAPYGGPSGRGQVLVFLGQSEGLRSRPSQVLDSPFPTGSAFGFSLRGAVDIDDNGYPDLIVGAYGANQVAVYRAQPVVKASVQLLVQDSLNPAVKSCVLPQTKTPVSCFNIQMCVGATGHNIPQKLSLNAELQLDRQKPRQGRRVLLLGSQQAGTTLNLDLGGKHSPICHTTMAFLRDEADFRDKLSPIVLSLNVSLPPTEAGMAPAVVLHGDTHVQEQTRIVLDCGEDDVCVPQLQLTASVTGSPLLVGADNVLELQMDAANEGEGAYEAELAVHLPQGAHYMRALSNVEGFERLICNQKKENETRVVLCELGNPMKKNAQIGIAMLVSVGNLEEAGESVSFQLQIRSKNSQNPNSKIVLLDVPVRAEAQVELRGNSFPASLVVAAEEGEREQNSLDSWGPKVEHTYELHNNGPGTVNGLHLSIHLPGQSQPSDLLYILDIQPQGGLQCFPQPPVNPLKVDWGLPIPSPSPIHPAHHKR
T1 sequence (P08514 891-1039 partner limits assumed): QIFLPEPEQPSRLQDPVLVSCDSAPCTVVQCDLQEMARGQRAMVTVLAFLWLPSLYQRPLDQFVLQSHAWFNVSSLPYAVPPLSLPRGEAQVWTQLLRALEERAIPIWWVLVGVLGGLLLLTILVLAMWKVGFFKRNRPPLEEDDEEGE
T1 sequence (P05106 27-788): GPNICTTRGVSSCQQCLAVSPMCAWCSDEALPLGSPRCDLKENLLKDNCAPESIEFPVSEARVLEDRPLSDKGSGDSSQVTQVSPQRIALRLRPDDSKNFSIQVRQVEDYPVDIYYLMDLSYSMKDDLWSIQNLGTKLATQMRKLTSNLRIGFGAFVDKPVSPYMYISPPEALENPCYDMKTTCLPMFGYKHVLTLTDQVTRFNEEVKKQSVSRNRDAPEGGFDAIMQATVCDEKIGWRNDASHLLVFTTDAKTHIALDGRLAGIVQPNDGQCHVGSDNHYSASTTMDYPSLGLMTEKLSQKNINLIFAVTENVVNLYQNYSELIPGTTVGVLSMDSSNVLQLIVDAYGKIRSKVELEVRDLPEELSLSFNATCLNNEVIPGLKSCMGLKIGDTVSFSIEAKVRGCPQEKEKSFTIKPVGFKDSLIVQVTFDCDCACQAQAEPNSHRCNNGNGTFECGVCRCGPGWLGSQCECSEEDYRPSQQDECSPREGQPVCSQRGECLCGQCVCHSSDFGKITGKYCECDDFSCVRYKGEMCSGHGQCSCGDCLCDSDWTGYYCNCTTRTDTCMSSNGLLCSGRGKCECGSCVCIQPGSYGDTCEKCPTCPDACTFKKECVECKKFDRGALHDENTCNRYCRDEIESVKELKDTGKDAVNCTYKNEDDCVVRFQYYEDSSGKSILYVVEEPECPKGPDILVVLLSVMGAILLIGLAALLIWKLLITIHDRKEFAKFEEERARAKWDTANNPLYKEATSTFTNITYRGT

human platelets [4] = assay: Thrombin-induced clot retraction in human platelet-rich plasma; type: cell-based
Description: 750 μL of Tyrode's buffer supplemented with inhibitor was mixed in a glass culture tube with 200 μL of PRP and 5 μL red blood cells. Clotting was initiated by addition of 50 μL thrombin at 10 units/mL in saline and a sealed Pasteur pipette secured in the tube center. Digital photographs of the experiment were taken at 15-minute intervals over 2 hours. Images were analyzed with ImageJ software to determine the area occupied by the clot and plasma. Plots of the relative areas and linear regressions were performed with SigmaPlot (Systat Software, San Jose, Calif.).
No ligands were added to the control tube. Photographs were taken immediately after thrombin addition (FIG. 5A) and at the end of the reaction (FIG. 5B). Clot retraction around the central glass rod placed in each glass test tube before thrombin addition is shown. 5 μL of red blood cells were added per 1 mL reaction to enhance the color contrast for photography.
Clot retraction normally helps secure hemostasis in vivo as evidenced by increased bleeding in mice with impaired clot retraction (see e.g., Leon et al, Blood 110, 3183-3191, doi:10.1182/blood-2007-03-080184 (2007)), or in recipients of any of the three anti-αIIbβ3 drugs (see e.g., Tutwiler et al, Biophys. J. 112, 714-723 (2017); Osdoit et al, J. Biol. Chem. 276, 6703-6710 (2001); Haling et al, Blood 117, 1719-1722 (2011)). The effects of Hr10 and eptifibatide on thrombin-induced clot retraction in fresh human platelet-rich plasma (PRP) (see e.g., Tucker et al, Methods Mol. Biol. 788, 101-107 (2012)) were compared. The kinetics of clot retraction were determined from quantification of serial images of the reaction acquired every 15 minutes for the 2-hour duration of the assay. […] Thrombolysis, 15, 71-80 (2003).

SMILES | ADP-induced secretion from lysosomes (CD63 expression) (human platelets [1]) | ADP-induced secretion from platelet α-granules (CD62P expression) (human platelets [1]) | Nascent occlusive thrombus formation / human platelet accumulation at laser-induced arteriolar injury (human platelets [2]) | Bleeding volume [3] | Bleeding in humanized mice ([3]; iv) | Conformational changes in αIIbβ3 reported by binding of mAbs AP5 and LIBS-1 (αIIbβ3; 1.5 μM, absence or presence of 5 μM ADP, FIG. 8D) | Kinetics of thrombin-induced clot retraction vs. buffer (human platelets [4]; fresh human PRP, 2 hours, FIGS. 12A-12B, three experiments) | Induction of AP5 epitope expression on human platelets (αIIbβ3; tirofiban 150 nM, M-tirofiban 1.5 μM, ADP 5 μM, FIG. 6D) | Kinetics of thrombin-induced clot retraction (human platelets [4]; FIG. 6E, three experiments, vs buffer control) | Clot retraction induced by α-thrombin (photographs) (human platelets [4]; tirofiban 1.5 μM, m-tirofiban 15 μM, α-thrombin 0.5 unit/mL, FIG. 5)
N=C(N)NCCCC[C@@H]1NC(=O)CCSSC[C@@H](C(N)=O)NC(=O)[C@@H]2CCCN2C(=O)[C@H](Cc2c[nH]c3ccccc23)NC(=O)[C@H](CC(=O)O)NC(=O)CNC1=O [eptifibatide] ([Mpa][hArg]GDWPC-NH2; disulfide 1-7) | did not significantly alter; also recorded: No differences | did not significantly alter; also recorded: No differences | completely preventing nascent occlusive thrombus formation | ~10 % of blood volume of a normal mouse | caused excessive bleeding | induced conformational changes in αIIbβ3 | significantly blocked clot retraction; also recorded: clot retraction was significantly reduced | – | – | –
CCCCS(=O)(=O)N[C@@H](Cc1ccc(OCCCCC2CCNCC2)cc1)C(=O)O [tirofiban] | – | – | – | – | – | – | – | induced expression of the AP5 epitope | effectively blocked thrombin-induced clot retraction | completely blocked clot retraction
